Measurements taken from patent US8962596B2 (Array BioPharma Inc., priority 2010, dated 2015).

How the values were obtained:
Type in all cases: biochemical
Human Tyk2 kinase domain = target: T1, Human Tyk2 kinase domain (Homo sapiens, UniProt P29597); assay: Tyk2 Inhibition Assay (Omnia kinase fluorescence peptide substrate assay); settings: averaged IC50 ranges; assay of Example A; 10 μM (Km app) or 1 mM ATP, 2 nM Tyk2
T1 construct: comprising amino acids 886 to 1187 with 10 additional histidine residues; 10xHis (histidine tag) (C, cleaved yes); made in house
T1 sequence (P29597 886-1187): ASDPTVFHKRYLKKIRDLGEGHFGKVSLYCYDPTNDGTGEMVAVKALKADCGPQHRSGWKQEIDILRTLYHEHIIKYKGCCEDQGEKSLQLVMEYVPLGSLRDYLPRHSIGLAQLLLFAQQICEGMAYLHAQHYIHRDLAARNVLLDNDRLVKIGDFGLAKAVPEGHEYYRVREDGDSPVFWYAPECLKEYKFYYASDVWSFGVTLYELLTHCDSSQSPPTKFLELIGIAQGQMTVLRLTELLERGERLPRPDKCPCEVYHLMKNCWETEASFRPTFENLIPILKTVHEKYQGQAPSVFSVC
From the text: (§1) The assays described in Examples A, B, C and D for the determination of Tyk2, JAK1, JAK2 and JAK3 kinase activity, respectively, utilized the Omnia® Kinase fluorescence peptide substrate-based technology (Invitrogen). The specific components of the assay mixture are described in Examples A, B, C and D. In these assays, Mg^2+ is chelated upon phosphorylation of the Omnia peptide by the kinase to form a bridge between the chelation-enhanced fluorophore Sox and the phosphate, resulting in an increase in fluorescence emission at 485 nm when excited at […]. The reactions were therefore read at excitation 360 nm and emission was measured at 485 nm every 50 seconds for 45 minutes using a PerkinElmer EnVision Multilabel Plate Reader.
(§2) The final buffer conditions for Tyk2, JAK1, JAK2, and JAK3 assays were as follows: 25 mM HEPES, pH 7.4, 10 mM MgCl2, 0.01% Triton X-100 and 1 mM DTT.
(§3) Compounds were prepared at 50× the final concentration in DMSO by conducting 3-fold serial dilutions from a 500-μM intermediate dilution to give a 10-point dosing curve having a high dose of 10 μM. Two-μL aliquots of these were transferred to a fresh plate for a ten-fold intermediate dilution with assay buffer. Five-μL aliquots of the diluted compounds were then transferred to 20-μL of assay mixtures described in Examples A, B, C and D for a final concentration of DMSO of 2%. A standard or reference compound was typically included on each assay plate to validate that plate. For each plate, percent of control (POC) values were calculated for each well according to the following equation:
(§4) where Xmax=Average Uninhibited Controls • Xmin=Average Background IC50's were estimated from the POC's using a standard 4-parameter logistic model:
(§5) where • A=Minimum Y (Bottom Asymptote) • B=Maximum Y (Top Asymptote) • C=EC50 • D=Slope Factor • X=Compound Concentration (nM) • Y=POC
(§6) The IC50 is defined as the concentration of inhibitor at which the POC equals 50 for the fitted curve.
Compounds of Formula I were screened for their ability to inhibit Tyk2 using the general enzyme inhibition assay method, in which the assay mixture contained 10 μM (Km app) or 1 mM ATP, 8 μM Omnia® Y12 peptide (Catalog #IVGN KPZ3121C; Invitrogen Corporation, Carlsbad, Calif.) and 2 nM Tyk2 in a total volume of 20 μL. Human Tyk2 kinase domain, comprising amino acids 886 to 1187 with 10 additional histidine residues (histidine tag) on the carboxy terminus, was expressed and purified from bacculovirus in-house at Array BioPharma Inc. (Boulder, Colo.). The histidine tag was cleaved after purification using standard conditions.

JAK2 = target: T2, JAK2 (Homo sapiens, UniProt O60674); assay: JAK2 Inhibition Assay (Omnia kinase fluorescence peptide substrate assay); settings: averaged IC50 ranges; assay of Example C; 25 μM (Km app) or 1 mM ATP, 5 nM JAK2
T2 construct: purchased Invitrogen Corporation, Carlsbad, Calif; PV4288
T2 sequence (O60674 whole entry): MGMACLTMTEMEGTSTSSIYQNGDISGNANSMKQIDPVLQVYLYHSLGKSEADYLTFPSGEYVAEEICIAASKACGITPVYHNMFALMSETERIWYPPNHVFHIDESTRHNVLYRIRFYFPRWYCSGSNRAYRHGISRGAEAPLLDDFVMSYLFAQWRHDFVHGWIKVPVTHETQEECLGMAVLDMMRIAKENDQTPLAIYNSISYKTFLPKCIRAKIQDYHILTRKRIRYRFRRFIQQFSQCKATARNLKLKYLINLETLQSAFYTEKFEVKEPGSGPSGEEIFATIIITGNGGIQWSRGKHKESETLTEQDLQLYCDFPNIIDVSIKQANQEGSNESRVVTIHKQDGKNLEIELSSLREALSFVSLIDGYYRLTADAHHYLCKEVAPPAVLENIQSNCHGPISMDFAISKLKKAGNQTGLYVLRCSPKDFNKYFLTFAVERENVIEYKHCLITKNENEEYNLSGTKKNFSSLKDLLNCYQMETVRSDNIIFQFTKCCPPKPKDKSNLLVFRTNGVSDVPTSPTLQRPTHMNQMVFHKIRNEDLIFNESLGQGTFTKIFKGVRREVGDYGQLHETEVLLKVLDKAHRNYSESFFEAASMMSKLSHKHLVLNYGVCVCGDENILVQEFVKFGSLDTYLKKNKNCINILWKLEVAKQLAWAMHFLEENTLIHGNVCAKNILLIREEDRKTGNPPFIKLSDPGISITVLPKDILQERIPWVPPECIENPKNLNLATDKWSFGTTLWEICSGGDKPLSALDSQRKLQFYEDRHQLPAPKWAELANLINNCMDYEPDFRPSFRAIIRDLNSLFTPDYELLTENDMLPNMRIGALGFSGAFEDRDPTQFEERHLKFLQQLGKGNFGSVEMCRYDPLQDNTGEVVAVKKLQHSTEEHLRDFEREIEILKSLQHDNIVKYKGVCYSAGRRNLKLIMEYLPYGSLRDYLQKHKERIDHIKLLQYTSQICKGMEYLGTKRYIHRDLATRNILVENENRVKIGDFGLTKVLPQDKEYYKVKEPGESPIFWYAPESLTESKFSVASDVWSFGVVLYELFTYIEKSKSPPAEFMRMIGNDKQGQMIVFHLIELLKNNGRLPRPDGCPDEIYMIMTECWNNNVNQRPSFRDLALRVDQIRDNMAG
From the text: as §1, §2, §3, §4, §5, §6
(§7) Compounds of Formula I were screened for their ability to inhibit JAK2 using the general enzyme inhibition assay method, in which the assay mixture contained 25 μM (Km app) or 1 mM ATP, 10 μM Omnia® Y7 peptide (Catalog #IVGN KNZ3071C, Invitrogen Corporation, Carlsbad, Calif.) and 5 nM JAK2 in a total volume of 20 μL. JAK2 was purchased from Invitrogen Corporation, Carlsbad, Calif. (catalog #IVGN PV4288).

JAK3 = target: T3, JAK3 (Homo sapiens, UniProt P52333); assay: JAK3 Inhibition Assay (Omnia kinase fluorescence peptide substrate assay); settings: averaged IC50 ranges; assay of Example D; 10 μM (Km app) or 1 mM ATP, 2.5 nM JAK3
T3 construct: purchased Invitrogen Corporation, Carlsbad, Calif; PV4080
T3 sequence (P52333 1-1124): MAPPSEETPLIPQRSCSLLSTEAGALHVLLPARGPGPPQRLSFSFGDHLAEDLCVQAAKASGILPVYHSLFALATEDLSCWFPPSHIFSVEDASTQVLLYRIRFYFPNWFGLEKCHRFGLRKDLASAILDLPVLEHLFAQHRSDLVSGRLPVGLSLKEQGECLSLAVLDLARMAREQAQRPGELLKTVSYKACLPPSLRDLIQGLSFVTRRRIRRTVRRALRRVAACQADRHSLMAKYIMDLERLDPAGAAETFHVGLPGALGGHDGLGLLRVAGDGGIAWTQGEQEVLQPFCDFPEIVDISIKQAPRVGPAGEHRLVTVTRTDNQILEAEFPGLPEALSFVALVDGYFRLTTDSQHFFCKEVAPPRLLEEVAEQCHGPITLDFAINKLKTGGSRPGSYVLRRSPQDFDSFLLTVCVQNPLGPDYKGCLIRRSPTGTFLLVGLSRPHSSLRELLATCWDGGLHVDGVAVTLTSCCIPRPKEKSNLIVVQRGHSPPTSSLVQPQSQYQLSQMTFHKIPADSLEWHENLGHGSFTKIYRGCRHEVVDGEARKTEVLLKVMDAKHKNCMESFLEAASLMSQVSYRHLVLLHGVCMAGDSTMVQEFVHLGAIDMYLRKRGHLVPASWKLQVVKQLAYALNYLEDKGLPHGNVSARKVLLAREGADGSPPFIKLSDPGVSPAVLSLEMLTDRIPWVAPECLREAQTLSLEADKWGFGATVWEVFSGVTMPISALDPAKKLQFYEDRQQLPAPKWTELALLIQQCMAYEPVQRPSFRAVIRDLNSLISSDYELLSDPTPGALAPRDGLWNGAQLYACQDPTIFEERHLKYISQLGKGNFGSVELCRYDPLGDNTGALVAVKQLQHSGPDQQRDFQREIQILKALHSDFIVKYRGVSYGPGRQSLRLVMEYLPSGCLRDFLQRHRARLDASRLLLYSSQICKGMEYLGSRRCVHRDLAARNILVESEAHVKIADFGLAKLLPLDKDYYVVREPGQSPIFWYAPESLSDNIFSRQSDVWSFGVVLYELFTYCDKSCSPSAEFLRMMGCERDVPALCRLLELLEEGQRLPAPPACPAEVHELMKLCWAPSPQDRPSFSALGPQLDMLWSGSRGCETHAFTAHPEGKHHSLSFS
From the text: as §1, §2, §3, §4, §5, §6
as §7, with “JAK3” for “JAK2”, “10” for “25”, “2.5” for “5”, “PV4080).” for “PV4288).”

JAK1 = target: T4, JAK1 (Homo sapiens, UniProt P23458); assay: JAK1 Inhibition Assay (Omnia kinase fluorescence peptide substrate assay); settings: averaged IC50 ranges; assay of Example B; 40 μM (Km app) or 1 mM ATP, 15 nM JAK1
T4 construct: purchased Invitrogen Corporation, Carlsbad, Calif; PV4775
T4 sequence (P23458 whole entry): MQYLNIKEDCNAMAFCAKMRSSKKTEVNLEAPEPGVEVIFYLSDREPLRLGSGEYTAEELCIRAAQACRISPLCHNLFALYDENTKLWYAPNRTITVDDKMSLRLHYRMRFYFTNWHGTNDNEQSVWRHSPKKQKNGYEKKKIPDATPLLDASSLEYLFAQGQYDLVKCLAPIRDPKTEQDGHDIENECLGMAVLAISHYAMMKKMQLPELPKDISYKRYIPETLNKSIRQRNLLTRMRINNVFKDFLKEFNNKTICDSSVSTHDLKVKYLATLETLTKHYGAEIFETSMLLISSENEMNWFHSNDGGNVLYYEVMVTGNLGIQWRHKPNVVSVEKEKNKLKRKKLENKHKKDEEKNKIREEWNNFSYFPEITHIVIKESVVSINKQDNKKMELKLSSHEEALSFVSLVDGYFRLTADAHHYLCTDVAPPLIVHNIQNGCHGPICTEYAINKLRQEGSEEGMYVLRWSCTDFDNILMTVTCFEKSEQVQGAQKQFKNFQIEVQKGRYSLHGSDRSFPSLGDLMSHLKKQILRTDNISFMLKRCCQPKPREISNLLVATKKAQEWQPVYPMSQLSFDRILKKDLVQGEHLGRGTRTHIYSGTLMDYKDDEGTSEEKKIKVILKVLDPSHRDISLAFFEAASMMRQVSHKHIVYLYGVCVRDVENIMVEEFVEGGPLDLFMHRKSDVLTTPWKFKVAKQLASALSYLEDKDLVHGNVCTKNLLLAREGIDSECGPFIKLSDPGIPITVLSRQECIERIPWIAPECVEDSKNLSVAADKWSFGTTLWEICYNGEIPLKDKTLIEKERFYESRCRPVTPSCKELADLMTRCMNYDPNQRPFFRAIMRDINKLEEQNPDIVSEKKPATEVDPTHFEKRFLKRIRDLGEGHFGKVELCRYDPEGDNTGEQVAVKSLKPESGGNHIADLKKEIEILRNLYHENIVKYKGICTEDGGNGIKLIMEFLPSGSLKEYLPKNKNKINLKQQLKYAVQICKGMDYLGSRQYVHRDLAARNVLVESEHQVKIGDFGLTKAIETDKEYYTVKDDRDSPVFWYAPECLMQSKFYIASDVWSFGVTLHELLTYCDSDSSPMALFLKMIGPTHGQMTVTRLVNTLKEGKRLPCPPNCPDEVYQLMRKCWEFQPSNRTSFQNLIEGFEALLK
From the text: as §1, §2, §3, §4, §5, §6
Compounds of Formula I were screened for their ability to inhibit JAK1 using the general enzyme inhibition assay method, in which the assay mixture contained 40 μM (Km app) or 1 mM ATP, 8 μM Omnia® Y12 peptide (Catalog #IVGN KPZ3121C; Invitrogen Corporation, Carlsbad, Calif.) and 15 nM JAK1 in a total volume of 20 μL. JAK1 was purchased from Invitrogen Corporation, Carlsbad, Calif. (catalog #IVGN PV4775).

IC50 (Human Tyk2 kinase domain)	IC50 (JAK2)	IC50 (JAK3)	IC50 (JAK1)	SMILES
< 10 nM	10 to 100 nM	100 to 1000 nM	10 to 100 nM	Cn1cc(-c2cc3nccn3c(-c3cnn(C(CC#N)C4CC4(F)F)c3)n2)cn1 (mixture of isomers) [Example 147, 3-(2,2-difluorocyclopropyl)-3-(4-(7-(1-methyl-1H-pyrazol-4-yl)imidazo[1,2-c]pyrimidin-5-yl)-1H-pyrazol-1-yl)propanenitrile]
10 to 100 nM	100 to 1000 nM	100 to 1000 nM	100 to 1000 nM	CN1CCC(c2ccc(-c3cc4nccn4c(-c4cnn(C(CC#N)C5CCCC5)c4)n3)cc2)CC1 (single isomer, unassigned) [Example 111, 3-cyclopentyl-3-(4-(7-(4-(1-methylpiperidin-4-yl)phenyl)imidazo[1,2-c]pyrimidin-5-yl)-1H-pyrazol-1-yl)propanenitrile]
< 10 nM	10 to 100 nM	100 to 1000 nM	10 to 100 nM	CN1CCC(c2ccc(-c3cc4nccn4c(-c4cnn(C(CC#N)C5CCCC5)c4)n3)cc2)CC1 (single isomer, unassigned) [Example 112, 3-cyclopentyl-3-(4-(7-(4-(1-methylpiperidin-4-yl)phenyl)imidazo[1,2-c]pyrimidin-5-yl)-1H-pyrazol-1-yl)propanenitrile]
< 10 nM	10 to 100 nM	100 to 1000 nM	100 to 1000 nM	N#CCC(C1CCCC1)n1cc(-c2nc(-c3ccc(N4CCOCC4)cc3)cc3nccn23)cn1 (single isomer, unassigned) [Example 114, 3-cyclopentyl-3-(4-(7-(4-morpholinophenyl)imidazo[1,2-c]pyrimidin-5-yl)-1H-pyrazol-1-yl)propanenitrile]
< 10 nM	< 10 nM	100 to 1000 nM	< 10 nM	N#CCC(C1CCCC1)n1cc(-c2nc(-c3ccc(N4CCOCC4)cc3)cc3nccn23)cn1 (single isomer, unassigned) [Example 115, 3-cyclopentyl-3-(4-(7-(4-morpholinophenyl)imidazo[1,2-c]pyrimidin-5-yl)-1H-pyrazol-1-yl)propanenitrile]
10 to 100 nM	100 to 1000 nM	100 to 1000 nM	100 to 1000 nM	Cn1cc(-c2cc3nccn3c(-c3cnn(C(CC#N)C4CC4)c3)n2)cn1 (single isomer, unassigned; enantiomer 1) [Example 3, Enantiomer 1 of 3-cyclopropyl-3-(4-(7-(1-methyl-1H-pyrazol-4-yl)imidazo[1,2-c]pyrimidin-5-yl)-1H-pyrazol-1-yl)propanenitrile (Peak 1)]
< 10 nM	10 to 100 nM	100 to 1000 nM	10 to 100 nM	Cn1cc(-c2cc3nccn3c(-c3cnn(C(CC#N)C4CC4)c3)n2)cn1 (single isomer, unassigned; enantiomer 2) [Example 4, Enantiomer 2 of 3-cyclopropyl-3-(4-(7-(1-methyl-1H-pyrazol-4-yl)imidazo[1,2-c]pyrimidin-5-yl)-1H-pyrazol-1-yl)propanenitrile (Peak 2)]
< 10 nM	10 to 100 nM	100 to 1000 nM	10 to 100 nM	Cn1cc(-c2cc3nccn3c(-c3cnn(C(CC#N)CC#N)c3)n2)cn1 [Example 1, 3-(4-(7-(1-methyl-1H-pyrazol-4-yl)imidazo[1,2-c]pyrimidin-5-yl)-1H-pyrazol-1-yl)pentanedinitrile]
< 10 nM	10 to 100 nM	> 1000 nM	100 to 1000 nM	Cn1cc(-c2cc3nccn3c(-c3cnn(C(CC#N)C4CC4)c3)n2)cn1 (stereo not drawn) [Example 2, 3-Cyclopropyl-3-(4-(7-(1-methyl-1H-pyrazol-4-yl)imidazo[1,2-c]pyrimidin-5-yl)-1H-pyrazol-1-yl)propanenitrile]
10 to 100 nM	100 to 1000 nM	> 1000 nM	100 to 1000 nM	Cn1cc(-c2cc3nccn3c(-c3cnn(C(CC#N)CC(C)(C)C)c3)n2)cn1 (stereo not drawn) [Example 5]
10 to 100 nM	10 to 100 nM	> 1000 nM	100 to 1000 nM	Cn1cc(-c2cc3nccn3c(-c3cnn(C(CC#N)c4ccccn4)c3)n2)cn1 (stereo not drawn) [Example 6, 3-(4-(7-(1-methyl-1H-pyrazol-4-yl)imidazo[1,2-c]pyrimidin-5-yl)-1H-pyrazol-1-yl)-3-(pyridin-2-yl)propanenitrile]
< 10 nM	10 to 100 nM	100 to 1000 nM	10 to 100 nM	Cn1cc(-c2cc3nccn3c(-c3cnn(C(CC#N)c4cccnc4)c3)n2)cn1 (stereo not drawn) [Example 7, 3-(4-(7-(1-methyl-1H-pyrazol-4-yl)imidazo[1,2-c]pyrimidin-5-yl)-1H-pyrazol-1-yl)-3-(pyridin-3-yl)propanenitrile]
